The text below walks through data of a melting point compilation (Tetko et al.; mined from patent text by program, amines drawn as free bases though some values may be those of a salt).

What is called melting point is the temperature, or range, at which the solid turns liquid. `COCc1cc(O)cc2cc(-c3ccc(O)cc3)oc12` registered a melting point of 186 to 188 °C.
`CCCC12CCC(CC(=O)O)(CC1)CC2`: the melting point worked out at 85 °C.
As for `NC(=O)C1COc2c(F)cccc2O1` (centres undefined), the figure is 167 °C; as for `O=C(c1cccnc1)c1cc2cc(Br)ccc2s1`, 147 to 148 °C; as for `CCOc1cc([N+](=O)[O-])ccc1C(O)c1cc(C)ccn1` (centres undefined), 114 to 115 °C.
The figure for `O=c1c(-c2ccccc2)cc(C2=NCCO2)c2n1CCc1ccsc1-2` is 211 to 212 °C.
The figure for `Cc1cc(Cl)c(C)c(C(=O)O)c1` is 168 to 170 °C; for `COC(=O)c1cc(=O)c2cc(C(F)(F)F)ccc2[nH]1` it is 289 to 291 °C; for `CC(C)CN(C)c1ccccc1CS(=O)c1nc2ncccc2[nH]1` (centres undefined) it is 116 to 118 °C.
`CCN(c1cccc2cc(C(=O)NCCSC(c3ccccc3)(c3ccccc3)c3ccccc3)[nH]c12)S(=O)(=O)c1cccs1` came in with a melting point of 58 to 61 °C.
Take `CC(=O)C1CCC(=O)N1C(C)=O` (centres undefined): the melting point worked out at 62 °C.
As for `COc1ccccc1C(=O)c1cccc2c1ccn2S(=O)(=O)c1ccc(C)cc1`, the figure is 154 °C; as for `O=C(NCCN1CCCC1)N1CCN(c2ccc(F)cc2)CC1`, 100 to 102 °C.
As for `CCCOc1ccc(S(N)(=O)=O)cc1C1=NC(=O)C2=NC=NC2=N1`, the figure is 276 to 278 °C.
`Cc1cc(-c2coc3c(C(C)(C)C)cc(C)cc23)c(O)c(C(C)(C)C)c1` returned a melting point of 132 to 134 °C.
As for `Cc1cccc(C)c1COc1cc(C(=O)N(C)C)cc2c1nc(C)n2C`, the figure is 180 °C.
As to `CN1CCN(c2cc(Cl)cc3[nH]c(=O)n(Cc4ccccc4)c(=O)c23)CC1`, the melting point fell in the range of 208 to 210 °C.
With `COC(=O)C(C)(C)Sc1cccc(OCc2ccc(-c3ccc([N+](=O)[O-])cc3)o2)c1`, the melting point fell in the range of 81 to 82 °C.
The figure for `N#CC1CN1C(=O)NC(=O)COc1ccccc1` (centres undefined) is 134 to 136 °C.
`CN(O)C(=O)C1=Cc2cc(OCc3ccccc3)ccc2OC1` had a melting point of 143 to 146 °C.
For the molecule `COC(=O)c1ccc(OCCNC(=O)c2ccc(F)cc2)cc1`, the melting point was in the range of 105 to 107 °C.
For `COC(=O)Nc1ccccc1C(=O)Nc1nnn[nH]1`, the melting point was 236 to 237 °C.
As for `CC1(C)CC(=O)c2cc(Br)ccc21`, the figure is 117 to 118 °C; as for `CCOC(=O)c1ccc(OCC2(O)CCN(Cc3ccccc3)CC2)cc1`, 100 °C.
As for `CCS(=O)(=O)Nc1cc(-c2nsc(C(F)(F)F)c2Cl)c(Cl)cc1Cl`, the figure is 135 °C.
The figure for `CCC(O)CP(=O)(O)CCCN` (centres undefined) is 184 to 185 °C; for `FC(F)(F)CNC1=NN(c2ccc(Cl)c(Cl)c2)CC1` it is 93 to 94 °C; for `COc1ccc(C)cc1NC(=O)Nc1ccc(N2CCN(C(=O)Nc3ccc(OCCO)cc3C(F)(F)F)CC2)c(C)c1` it is 225 to 228 °C.
For the molecule `N#CC(C#N)=C1N(CCCN2CCCCC2)CCN1CCCN1CCCCC1`, the melting point is 99 to 101 °C.
The molecule `C=CCN(C(=O)c1cnc(N2CC(C)(C)NC2=O)nc1N)c1cccc(C(F)(F)F)c1` yielded a melting point of 187 to 188 °C.
The figure for `CCOC(=O)C1=C(C)NC(COCCN=[N+]=[N-])=C(C(=O)OC)C1c1cccc(Cl)c1Cl` (centres undefined) is 126 °C; for `CCN(CCCCN)c1ccc2c(=O)[nH][nH]c(=O)c2c1` it is 255 to 257 °C.
In the case of `CCc1nc2c(cnn2CC)c(NC2CCOCC2)c1CNC(=O)c1cccc(C(=O)NCc2ccc(F)c(-c3cccc(CN4CCN(C(C)C)CC4)c3)c2)c1`, the melting point was in the range of 165 to 169 °C.
As for `CC1(C)C(C(=O)O)N2C(=O)C(NC(=O)Cc3ccccc3)C2S1=O` (centres undefined), the figure is 143 to 145 °C.
The figure for `CCOC(=O)c1cnc2ccnn2c1O` is 81 °C; for `COc1cccc(-c2c(C3CCN(C)CC3)[nH]c(=O)c3ccccc23)c1` it is 181 to 183 °C; for `Cc1cccc(C(=O)C(Br)c2ccnc(F)c2)c1` (centres undefined) it is 66 to 67 °C.
As to `COc1ccc2c(c1)c(CC(N)=O)c(C)n2Cc1ccc(OCc2ccccc2)cc1`, the melting point lay in the range of 155 to 157 °C.
Regarding `O=C(Nc1nc2ccccc2o1)C(Cc1ccc(F)cc1)c1ccc(F)cc1F` (centres undefined), the melting point stood at 178 °C.
As for `CC1(C)CCC(=O)Nc2ccc(Nc3ncc(Cl)c(Nc4ccccc4-c4ncccn4)n3)cc21`, the figure is 186 °C; as for `COc1ccc2c(c1)C(CCNC(=O)C(C)C)CC2` (centres undefined), 104 to 105 °C.
As for `O=C1N(Cc2ccccn2)c2ccccc2C12COc1cc3[nH]ncc3cc12` (centres undefined), the figure is 117 to 119 °C; as for `CS(=O)(=O)c1ccc(-c2cc(C(F)(F)F)nn2-c2ccc(O)cc2)cc1`, 243 to 244 °C; as for `CCN(C(=O)C(F)(F)F)c1ccc(C(=O)Nc2ccc3ccc(OC)nc3n2)cc1`, 150 °C.
As for `CC(=O)n1c(-c2ccc(C)cc2)cc2ccccc21`, the figure is 67 to 69 °C; as for `CCc1cccc(CC)c1-n1cnc(N)nc1=O`, 136 to 138 °C.
With `O=C1C(c2ccccc2)=C(c2ccccc2)C(=O)N1Cc1ccccc1F`, the melting point fell in the range of 113 to 114 °C.
In turn, `C=CCSC1=C(C(=O)OCc2ccc([N+](=O)[O-])cc2)N2C(=O)[C@@H]([C@H](C)O)[C@H]2C1` showed a melting point of 137 to 139 °C.
As for `CNC(=C[N+](=O)[O-])NCCSCc1ncccc1Cl`, the melting point was found to be 166 °C.
The figure for `CCOC(=O)C1(CC(=O)O)C(=O)N(Cc2ccc(Br)cc2F)C(=O)c2cccn21` (centres undefined) is 142 to 144 °C; for `Cc1ccc(-c2ccc3nc(C)c(C(=O)Nc4ccc(CN(C)C5CCOCC5)cc4)cc3c2)cc1` it is 157 to 160 °C; for `Cc1cc(N2CCC(=O)CC2)c2cc(C)c(-c3ccc(Cl)cc3Cl)n2n1` it is 170 to 171 °C.
As for `COC[C@H](C1CC1)n1cc(Cl)nc(Nc2cc(C)c(OC)nc2C)c1=O`, the figure is 99 to 100 °C.
As for `CC(C)[C@H](NC(=O)OCc1ccccc1)C(=O)c1ccc(OCc2ccccc2)cc1`, the figure is 75 to 77 °C; as for `CCOC(=O)c1c(C)nc(N2CCNCC2)nc1N1CCS(=O)(=O)CC1`, 154 to 159 °C; as for `COC1CC2(C)C(CCC3C4CC(C)=C(C(C)=O)C4(C)CC(=O)C32)CC1O` (centres undefined), 184 to 186 °C.
For the molecule `Cc1cc(Cl)c(C(=O)c2ccc(Cl)cc2)c(Cl)c1`, the melting point lay within 112 to 114 °C.
As for `CC(C)(C)C(=O)C(CSc1ccc(Cl)cc1)n1cncn1` (centres undefined), the figure is 67 °C; as for `COCC(=O)N[C@H]1CC[C@H](Nc2nccc(-n3nnc4ccccc43)n2)CC1`, 234 to 235 °C; as for `CCN(c1ccc(C(=O)c2ccccc2)cc1[N+](=O)[O-])C1CCCCC1`, 91.5 to 92 °C.
As for `O=C(CCCN1CCC2(CC1)SC(c1ccc(Cl)cc1)c1ccccc12)c1ccc(F)cc1F` (centres undefined), the melting point was in the range of 98 to 100 °C.
Molecule `CC(C)c1cc(O)c2c(c1)OC(C)(C)C1=C2CN(CC(=O)NC(N)=O)CC1` gave a melting point of 164 to 166 °C.
As for `N[C@@H](C/C(=C\C1CCCCC1)C(=O)O)C(=O)O`, the figure is 205 °C.
For `COC(=O)C1C=CCN2C(=O)C(CCOS(C)(=O)=O)(Cc3ccccc3)C(=O)N12` (centres undefined), the melting point was in the range of 161 to 163 °C.
The figure for `COC(=O)CN(C)C(=O)c1ccc(OC)c2cc(OC)ccc12` is 105 to 107 °C.
In turn, `CC(=O)N(C)c1ccc2sc3ccccc3c(=O)c2c1` displayed a melting point of 246 to 248 °C.
As to `CC(=O)Nc1ccc2c(c1)C(=O)CC1(CCN(Cc3ccc([N+](=O)[O-])cc3)CC1)O2`, the melting point is over 250 °C.
As to `CCN(c1nc2ccccc2[nH]1)C1CCN(CCc2ccccc2)CC1`, the melting point worked out at 205 °C.
For `Cc1cccc(C)c1NC(=O)c1ccc(O)cc1`, the melting point fell in the range of 232 to 234 °C.
The figure for `CCCC(C)n1c(=O)nc(-n2cccn2)[nH]c1=O` (centres undefined) is 99 to 100 °C; for `Cc1nc(N)nc(N)c1-c1ccc2ccccc2c1` it is 221 to 222 °C.
Turning to `CCOCc1nc2c(N)nc3cc(N4CCCCC4=O)ccc3c2n1CCCOC(C)C`, the melting point is 205 to 206 °C.
In the case of `Cc1oc(-c2ccc(C(F)(F)F)cc2)nc1COc1cccc(CN(O)C(N)=O)c1`, the melting point lay within 125 to 126 °C.
As to `c1coc(CNc2nccc3ccccc23)c1`, the melting point is 76 to 77 °C.
The figure for `Nc1ccccc1CCN1CCN(c2ccccc2)CC1` is 103 °C.
The figure for `CCNC(=C[N+](=O)[O-])SC` is 66 to 67.5 °C; for `N#Cc1cc(C#N)cc(Oc2c(C3CC3)n[nH]c2C2CC2)c1` it is 168 to 170 °C.
As to `CS(=O)(=O)N1CCC[C@@H]1[C@H](CS(=O)(=O)c1ccc(Oc2ccc(OC(F)(F)F)cc2)cc1)N(O)C=O`, the melting point was in the range of 89.6 to 93 °C.
`CCCc1c2c(c([N+](=O)[O-])c3c(=O)cc(C(=O)OCC)oc13)CCCC2` had a melting point of 140 to 142 °C.
As to `N#CSCc1ccc(C(=O)c2ccc(Cl)cc2)cc1`, the melting point lay within 129 to 131 °C.
Consider `CC(Br)C(=O)Nc1ccc(Cl)cc1NC1CC1` (racemic), for which the melting point turned out to be 130 °C.
The figure for `O=[N+]([O-])c1ccc(N2Cc3ccccc3P2(=O)c2ccccc2)cc1` (centres undefined) is 255 to 257 °C; for `CS(=O)c1nnc2c3ccccc3c(-c3ccccc3)nn12` (centres undefined) it is 215 to 217 °C.
As for `CC(C)(O)Cc1cccc2ccccc12`, the figure is 47 to 48 °C.
`O=C(NC(=O)c1c(Cl)cccc1Cl)Nc1cncc(C(F)(F)F)n1` showed a melting point of 188 to 192 °C.
`O=C(Nc1ccc(C=CCN2C(=O)c3ccccc3C2=O)cc1)c1ccccc1-c1ccc(C(F)(F)F)cc1`: the melting point came to 190 °C.
Turning to `CCCCCCOc1ccc2c(CC#N)c(OCCCCCC)ccc2c1CC#N`, the melting point lay within 135 to 136 °C.
As for `O=[N+]([O-])c1cnccc1NCc1c(F)cccc1F`, the figure is 148 to 149 °C; as for `CCOC(=O)c1c(C(=O)c2nc(OC)cc(OC)n2)ccnc1Br`, 98 to 99 °C.
